Source: paper PMC11864979, “First-in-class ultralong-target-residence-time p38α inhibitors as a mitosis-targeted therapy for colorectal cancer” (Nature Cancer, 2025)
Read-outs that look alike come from different tables or passages of the source.

Assays:
Assay in all cases: selectivity profiling in a panel of 340 wild-type kinases (Reaction Biology Europe)
Type in all cases: binding
340 wild-type kinases [1] = target: T1, 340 wild-type kinases (Homo sapiens, UniProt P54760)
T1 construct: purchased Reaction Biology Europe
T1 sequence (P54760 16-987): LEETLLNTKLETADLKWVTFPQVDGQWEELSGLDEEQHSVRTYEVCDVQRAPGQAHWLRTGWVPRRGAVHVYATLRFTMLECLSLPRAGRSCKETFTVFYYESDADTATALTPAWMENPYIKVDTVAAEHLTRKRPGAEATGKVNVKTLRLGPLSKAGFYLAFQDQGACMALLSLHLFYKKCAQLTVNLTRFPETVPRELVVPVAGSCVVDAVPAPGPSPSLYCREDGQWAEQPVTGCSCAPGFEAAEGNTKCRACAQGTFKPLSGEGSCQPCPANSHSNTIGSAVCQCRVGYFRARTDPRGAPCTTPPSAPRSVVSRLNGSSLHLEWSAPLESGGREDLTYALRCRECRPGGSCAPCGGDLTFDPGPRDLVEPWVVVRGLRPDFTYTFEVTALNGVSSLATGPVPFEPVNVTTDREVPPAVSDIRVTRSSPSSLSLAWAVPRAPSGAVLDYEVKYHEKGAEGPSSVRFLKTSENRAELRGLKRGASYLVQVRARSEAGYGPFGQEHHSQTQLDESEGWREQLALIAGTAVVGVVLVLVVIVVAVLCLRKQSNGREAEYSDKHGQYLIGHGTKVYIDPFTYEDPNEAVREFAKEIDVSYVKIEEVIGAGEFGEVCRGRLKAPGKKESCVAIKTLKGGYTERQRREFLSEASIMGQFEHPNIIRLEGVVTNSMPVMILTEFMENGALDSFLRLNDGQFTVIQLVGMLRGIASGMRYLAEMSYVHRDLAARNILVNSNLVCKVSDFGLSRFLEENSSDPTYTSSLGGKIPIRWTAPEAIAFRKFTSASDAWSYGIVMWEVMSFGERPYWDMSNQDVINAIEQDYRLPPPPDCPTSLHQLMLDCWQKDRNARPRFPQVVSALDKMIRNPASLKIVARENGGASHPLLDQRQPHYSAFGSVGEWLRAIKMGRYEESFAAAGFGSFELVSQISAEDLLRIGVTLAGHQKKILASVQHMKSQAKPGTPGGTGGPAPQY

340 wild-type kinases [2] = target: T2, 340 wild-type kinases (Homo sapiens, UniProt P78527)
T2 construct: purchased Reaction Biology Europe
T2 sequence (P78527 whole entry): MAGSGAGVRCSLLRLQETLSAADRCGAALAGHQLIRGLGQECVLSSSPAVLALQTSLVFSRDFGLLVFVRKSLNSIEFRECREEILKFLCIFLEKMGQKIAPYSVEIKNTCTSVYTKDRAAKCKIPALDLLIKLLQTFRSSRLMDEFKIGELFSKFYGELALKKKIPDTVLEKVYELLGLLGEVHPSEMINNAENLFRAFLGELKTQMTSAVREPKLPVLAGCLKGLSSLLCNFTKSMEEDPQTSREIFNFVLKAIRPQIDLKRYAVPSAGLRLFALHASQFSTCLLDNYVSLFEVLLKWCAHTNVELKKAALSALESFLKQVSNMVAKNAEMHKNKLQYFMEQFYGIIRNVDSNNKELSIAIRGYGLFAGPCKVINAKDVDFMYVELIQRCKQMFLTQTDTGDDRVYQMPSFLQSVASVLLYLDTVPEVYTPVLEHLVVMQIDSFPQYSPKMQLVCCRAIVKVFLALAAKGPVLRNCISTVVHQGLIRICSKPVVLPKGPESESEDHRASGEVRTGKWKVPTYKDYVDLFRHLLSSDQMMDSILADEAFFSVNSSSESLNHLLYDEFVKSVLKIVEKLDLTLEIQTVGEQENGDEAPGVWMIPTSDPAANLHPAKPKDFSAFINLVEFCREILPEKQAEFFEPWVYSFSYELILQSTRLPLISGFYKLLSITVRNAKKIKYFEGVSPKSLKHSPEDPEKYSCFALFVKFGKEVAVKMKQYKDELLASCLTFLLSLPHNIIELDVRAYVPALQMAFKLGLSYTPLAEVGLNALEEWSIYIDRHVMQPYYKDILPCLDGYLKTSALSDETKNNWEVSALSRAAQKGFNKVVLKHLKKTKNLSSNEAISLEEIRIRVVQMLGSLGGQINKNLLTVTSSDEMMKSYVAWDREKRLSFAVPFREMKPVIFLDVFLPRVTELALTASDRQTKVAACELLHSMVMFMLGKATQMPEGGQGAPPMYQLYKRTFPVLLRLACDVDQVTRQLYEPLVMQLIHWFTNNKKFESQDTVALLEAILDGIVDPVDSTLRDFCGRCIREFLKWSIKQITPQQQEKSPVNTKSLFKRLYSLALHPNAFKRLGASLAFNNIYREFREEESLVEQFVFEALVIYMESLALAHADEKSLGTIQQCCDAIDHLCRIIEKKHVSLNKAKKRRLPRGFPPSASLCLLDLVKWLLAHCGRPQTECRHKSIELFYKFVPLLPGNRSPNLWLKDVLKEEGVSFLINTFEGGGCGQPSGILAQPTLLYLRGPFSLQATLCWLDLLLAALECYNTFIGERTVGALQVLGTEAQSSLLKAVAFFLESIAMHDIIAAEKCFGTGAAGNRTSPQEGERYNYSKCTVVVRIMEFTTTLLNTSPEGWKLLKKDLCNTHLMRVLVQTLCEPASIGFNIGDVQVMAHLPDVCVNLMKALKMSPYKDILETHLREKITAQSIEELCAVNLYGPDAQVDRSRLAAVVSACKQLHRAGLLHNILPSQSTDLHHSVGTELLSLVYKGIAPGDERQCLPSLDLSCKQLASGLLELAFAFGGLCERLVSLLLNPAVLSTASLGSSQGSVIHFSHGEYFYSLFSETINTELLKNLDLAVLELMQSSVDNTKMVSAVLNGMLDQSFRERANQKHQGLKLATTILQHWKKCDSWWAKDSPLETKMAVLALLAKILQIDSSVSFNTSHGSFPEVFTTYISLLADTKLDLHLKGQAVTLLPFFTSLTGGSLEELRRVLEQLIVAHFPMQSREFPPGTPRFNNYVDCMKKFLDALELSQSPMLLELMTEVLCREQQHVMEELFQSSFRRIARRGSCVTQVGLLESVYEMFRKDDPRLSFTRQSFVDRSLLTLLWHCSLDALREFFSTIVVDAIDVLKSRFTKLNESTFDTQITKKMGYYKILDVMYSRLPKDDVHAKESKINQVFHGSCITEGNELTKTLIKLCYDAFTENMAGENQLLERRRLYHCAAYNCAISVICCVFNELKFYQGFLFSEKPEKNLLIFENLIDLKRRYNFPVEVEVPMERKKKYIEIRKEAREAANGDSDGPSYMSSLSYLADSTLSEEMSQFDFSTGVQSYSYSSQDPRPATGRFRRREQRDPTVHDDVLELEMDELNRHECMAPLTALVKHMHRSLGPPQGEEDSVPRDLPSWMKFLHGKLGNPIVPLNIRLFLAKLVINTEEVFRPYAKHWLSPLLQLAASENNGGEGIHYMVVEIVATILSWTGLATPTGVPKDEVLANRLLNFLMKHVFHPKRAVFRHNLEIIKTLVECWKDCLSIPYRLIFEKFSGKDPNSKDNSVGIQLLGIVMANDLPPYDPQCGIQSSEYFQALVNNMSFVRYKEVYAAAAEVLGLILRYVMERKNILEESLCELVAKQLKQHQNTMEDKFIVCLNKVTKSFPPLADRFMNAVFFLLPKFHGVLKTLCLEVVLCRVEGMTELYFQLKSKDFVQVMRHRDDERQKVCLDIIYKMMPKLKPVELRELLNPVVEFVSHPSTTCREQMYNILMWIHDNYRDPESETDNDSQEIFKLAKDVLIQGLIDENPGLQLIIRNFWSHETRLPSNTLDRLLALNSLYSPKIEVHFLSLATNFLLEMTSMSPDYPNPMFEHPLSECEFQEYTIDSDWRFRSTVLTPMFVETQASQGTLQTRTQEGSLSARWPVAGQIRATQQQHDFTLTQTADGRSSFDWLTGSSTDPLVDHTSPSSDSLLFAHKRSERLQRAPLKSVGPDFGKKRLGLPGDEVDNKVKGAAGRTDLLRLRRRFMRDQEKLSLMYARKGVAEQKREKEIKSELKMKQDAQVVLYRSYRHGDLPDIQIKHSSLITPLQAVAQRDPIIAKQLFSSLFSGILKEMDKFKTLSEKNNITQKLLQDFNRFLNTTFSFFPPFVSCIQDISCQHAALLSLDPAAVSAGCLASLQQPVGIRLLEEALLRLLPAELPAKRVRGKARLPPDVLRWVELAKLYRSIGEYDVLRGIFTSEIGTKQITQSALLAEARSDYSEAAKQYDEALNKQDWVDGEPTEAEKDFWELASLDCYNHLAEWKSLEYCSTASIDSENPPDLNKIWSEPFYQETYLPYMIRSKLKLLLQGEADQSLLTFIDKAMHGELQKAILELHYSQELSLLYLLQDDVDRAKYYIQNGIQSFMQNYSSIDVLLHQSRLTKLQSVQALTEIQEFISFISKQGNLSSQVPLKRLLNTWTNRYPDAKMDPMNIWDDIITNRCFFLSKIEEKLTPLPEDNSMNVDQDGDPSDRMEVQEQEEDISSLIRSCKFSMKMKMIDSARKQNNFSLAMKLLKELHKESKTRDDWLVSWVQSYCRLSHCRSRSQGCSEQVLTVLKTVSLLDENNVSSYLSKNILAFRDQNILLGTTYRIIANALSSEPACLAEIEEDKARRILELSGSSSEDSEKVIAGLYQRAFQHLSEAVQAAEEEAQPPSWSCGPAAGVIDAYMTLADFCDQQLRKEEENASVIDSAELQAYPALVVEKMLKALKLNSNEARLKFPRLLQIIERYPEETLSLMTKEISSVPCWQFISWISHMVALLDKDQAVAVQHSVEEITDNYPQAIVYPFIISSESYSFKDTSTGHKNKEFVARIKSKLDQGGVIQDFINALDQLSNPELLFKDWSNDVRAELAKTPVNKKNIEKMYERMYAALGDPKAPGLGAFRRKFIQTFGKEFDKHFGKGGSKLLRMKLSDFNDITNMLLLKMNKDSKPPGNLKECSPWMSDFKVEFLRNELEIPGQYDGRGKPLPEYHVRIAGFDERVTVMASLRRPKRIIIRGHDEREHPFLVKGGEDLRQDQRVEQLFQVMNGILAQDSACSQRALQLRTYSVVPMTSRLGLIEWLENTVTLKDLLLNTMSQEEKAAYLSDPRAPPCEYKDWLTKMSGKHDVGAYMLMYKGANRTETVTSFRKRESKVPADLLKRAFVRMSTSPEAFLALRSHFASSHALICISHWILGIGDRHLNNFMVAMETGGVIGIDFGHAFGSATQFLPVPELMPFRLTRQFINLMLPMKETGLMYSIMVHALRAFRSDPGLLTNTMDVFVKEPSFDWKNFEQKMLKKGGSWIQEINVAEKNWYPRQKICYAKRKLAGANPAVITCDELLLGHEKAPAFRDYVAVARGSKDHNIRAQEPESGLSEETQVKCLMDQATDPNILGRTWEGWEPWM

340 wild-type kinases [3] = target: T3, 340 wild-type kinases (Homo sapiens, UniProt Q00535)
T3 construct: purchased Reaction Biology Europe
T3 sequence (Q00535 whole entry): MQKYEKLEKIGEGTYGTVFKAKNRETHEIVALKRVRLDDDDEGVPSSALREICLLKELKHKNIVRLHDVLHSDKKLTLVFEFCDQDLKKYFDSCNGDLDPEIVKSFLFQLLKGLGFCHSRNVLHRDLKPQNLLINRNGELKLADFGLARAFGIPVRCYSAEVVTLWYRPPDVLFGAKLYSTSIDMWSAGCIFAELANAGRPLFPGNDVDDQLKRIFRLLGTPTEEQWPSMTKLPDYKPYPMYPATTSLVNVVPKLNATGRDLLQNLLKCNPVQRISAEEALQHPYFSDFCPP

340 wild-type kinases [4] = target: T4, 340 wild-type kinases (Homo sapiens, UniProt Q16539)
T4 construct: purchased Reaction Biology Europe

340 wild-type kinases [5] = target: T5, 340 wild-type kinases (Homo sapiens, UniProt Q9UBE8)
T5 construct: purchased Reaction Biology Europe
T5 sequence (Q9UBE8 1-527): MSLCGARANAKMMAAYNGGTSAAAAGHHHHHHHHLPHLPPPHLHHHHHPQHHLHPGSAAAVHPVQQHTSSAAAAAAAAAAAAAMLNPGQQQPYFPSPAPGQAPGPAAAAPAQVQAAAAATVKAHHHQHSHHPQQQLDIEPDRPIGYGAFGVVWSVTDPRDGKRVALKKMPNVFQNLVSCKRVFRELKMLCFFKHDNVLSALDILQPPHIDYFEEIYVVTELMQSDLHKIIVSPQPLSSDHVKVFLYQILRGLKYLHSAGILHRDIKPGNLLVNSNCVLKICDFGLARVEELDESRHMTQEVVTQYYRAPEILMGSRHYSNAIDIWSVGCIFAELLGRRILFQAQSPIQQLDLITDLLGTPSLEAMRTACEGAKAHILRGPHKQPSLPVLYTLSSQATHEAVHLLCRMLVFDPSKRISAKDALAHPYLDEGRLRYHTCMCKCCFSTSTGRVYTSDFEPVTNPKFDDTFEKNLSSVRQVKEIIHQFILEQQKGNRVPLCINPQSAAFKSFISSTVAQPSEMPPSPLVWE

340 wild-type kinases [6] = target: T6, 340 wild-type kinases (Homo sapiens, UniProt Q9UK32)
T6 construct: purchased Reaction Biology Europe
T6 sequence (Q9UK32 whole entry): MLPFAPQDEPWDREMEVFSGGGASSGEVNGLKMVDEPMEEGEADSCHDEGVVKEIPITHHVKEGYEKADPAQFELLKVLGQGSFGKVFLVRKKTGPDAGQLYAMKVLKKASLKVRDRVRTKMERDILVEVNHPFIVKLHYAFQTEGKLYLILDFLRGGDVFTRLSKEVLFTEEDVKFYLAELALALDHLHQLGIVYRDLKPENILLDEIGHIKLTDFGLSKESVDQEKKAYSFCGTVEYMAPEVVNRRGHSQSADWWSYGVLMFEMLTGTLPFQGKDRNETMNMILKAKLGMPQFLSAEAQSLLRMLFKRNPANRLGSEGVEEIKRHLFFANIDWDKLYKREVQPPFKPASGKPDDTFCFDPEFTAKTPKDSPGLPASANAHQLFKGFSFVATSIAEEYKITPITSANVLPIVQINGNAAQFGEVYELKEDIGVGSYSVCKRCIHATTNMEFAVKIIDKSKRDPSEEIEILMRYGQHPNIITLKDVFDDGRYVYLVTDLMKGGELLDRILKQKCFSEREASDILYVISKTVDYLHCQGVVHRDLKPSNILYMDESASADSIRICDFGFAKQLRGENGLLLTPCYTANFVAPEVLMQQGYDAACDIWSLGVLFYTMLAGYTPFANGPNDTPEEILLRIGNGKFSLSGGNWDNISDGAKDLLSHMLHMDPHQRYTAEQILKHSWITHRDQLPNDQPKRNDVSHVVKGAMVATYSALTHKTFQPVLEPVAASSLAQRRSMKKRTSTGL

## CNC(=O)c1ccc2c(c1)C(=O)c1ccc(Nc3ccc(F)c(NC(=O)C4CC4)c3)cc1CC2 [Compound 2015]
340 wild-type kinases [1]; 0.2 µM 2015, read-out: EPHB4 residual activity
  remaining activity at 0.2 µM: 101%
340 wild-type kinases [1]; 1 µM 2015, read-out: EPHB4 residual activity
  remaining activity at 1 µM: 91.8%
340 wild-type kinases [1]; EPHB4, 0.2 µM, read-out: residual activity
  remaining activity at 0.2 µM: 101%
340 wild-type kinases [1]; EPHB4, 1 µM, read-out: residual activity
  remaining activity at 1 µM: 91.8%
340 wild-type kinases [2]; 0.2 µM 2015, read-out: DNAPK residual activity
  remaining activity at 0.2 µM: 111%
340 wild-type kinases [2]; 1 µM 2015, read-out: DNAPK residual activity
  remaining activity at 1 µM: 99.6%
340 wild-type kinases [2]; DNAPK, 0.2 µM, read-out: residual activity
  remaining activity at 0.2 µM: 111%
340 wild-type kinases [2]; DNAPK, 1 µM, read-out: residual activity
  remaining activity at 1 µM: 99.6%
340 wild-type kinases [3]; 0.2 µM 2015, read-out: CDK5/p25NCK residual activity
  remaining activity at 0.2 µM: 110%
340 wild-type kinases [3]; 0.2 µM 2015, read-out: CDK5/p35NCK residual activity
  remaining activity at 0.2 µM: 114%
340 wild-type kinases [3]; 1 µM 2015, read-out: CDK5/p25NCK residual activity
  remaining activity at 1 µM: 100%
340 wild-type kinases [3]; 1 µM 2015, read-out: CDK5/p35NCK residual activity
  remaining activity at 1 µM: 103%
340 wild-type kinases [3]; CDK5/p25NCK, 0.2 µM, read-out: residual activity
  remaining activity at 0.2 µM: 110%
340 wild-type kinases [3]; CDK5/p25NCK, 1 µM, read-out: residual activity
  remaining activity at 1 µM: 100%
340 wild-type kinases [3]; CDK5/p35NCK, 0.2 µM, read-out: residual activity
  remaining activity at 0.2 µM: 114%
340 wild-type kinases [3]; CDK5/p35NCK, 1 µM, read-out: residual activity
  remaining activity at 1 µM: 103%
340 wild-type kinases [4]; 0.2 µM 2015, read-out: p38alpha residual activity
  remaining activity at 0.2 µM: 5.35%
340 wild-type kinases [4]; 1 µM 2015, read-out: p38alpha residual activity
  remaining activity at 1 µM: 1.8%
340 wild-type kinases [4]; p38alpha, 0.2 µM, read-out: residual activity
  remaining activity at 0.2 µM: 5.35%
340 wild-type kinases [4]; p38alpha, 1 µM, read-out: residual activity
  remaining activity at 1 µM: 1.8%
340 wild-type kinases [5]; 0.2 µM 2015, read-out: NLK residual activity
  remaining activity at 0.2 µM: 92%
340 wild-type kinases [5]; 1 µM 2015, read-out: NLK residual activity
  remaining activity at 1 µM: 85.5%
340 wild-type kinases [5]; NLK, 0.2 µM, read-out: residual activity
  remaining activity at 0.2 µM: 92%
340 wild-type kinases [5]; NLK, 1 µM, read-out: residual activity
  remaining activity at 1 µM: 85.5%
340 wild-type kinases [6]; 0.2 µM 2015, read-out: RPS6KA6 residual activity
  remaining activity at 0.2 µM: 89.7%
340 wild-type kinases [6]; 1 µM 2015, read-out: RPS6KA6 residual activity
  remaining activity at 1 µM: 81.3%
340 wild-type kinases [6]; RPS6KA6, 0.2 µM, read-out: residual activity
  remaining activity at 0.2 µM: 89.7%
340 wild-type kinases [6]; RPS6KA6, 1 µM, read-out: residual activity
  remaining activity at 1 µM: 81.3%
